# Experiments:
# [1] = target: human KAT II (hKAT II) enzyme (Homo sapiens, UniProt Q8N5Z0); assay: KAT II Inhibition Spectra Assay; type: biochemical; conditions: Table 6; hKAT II, decrease in OD370, 37° C., 15-20 h; read-out: KATII IC50
# Procedure, shortened: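 hKAT II (15 nM, 3× stock) converts L-kynurenine (3 mM, 3× stock) with α-ketoglutarate and PLP in Tris acetate; 15–20 h at 37 °C. Inhibition of the OD370 decrease read versus DMSO wells across a concentration range gives IC50.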
# [2] = Prodrug in vivo pharmacokinetics in dogs (plasma, LC-MS-MS); design: species or system Dog (Beagle); conditions: for AUC / Cmax / Tmax / half-life: Beagle, dog
# Description: Test substances (Examples 4 and 71-73) were administered by oral gavage to groups of two dogs. Example 71 was also administered intravenously.
# Blood samples were taken at various times after administration and submitted to analysis for the parent drug (Example 71) and pro-drug (Examples 72 and 73) using an LC-MS-MS assay. Pharmacokinetic parameters derived from the plasma analytical data were determined using Watson LIMS 7.2.003 (Thermo Fisher Scientific, Waltham, Mass.). The results are given in FIG. 1 and Tables 8, 9, 10, and 11.
# [3] = Prodrug in vivo pharmacokinetics in monkeys (plasma, LC-MS-MS); design: species or system Monkey (Cynomolgus); conditions: for AUC / Cmax / Tmax / half-life: cynomolgus monkey; for F: calculated using IV AUC of 476 ng · h/mL
# Description: Test substances (Examples 4 and 71-73) were administered by oral gavage to groups of two monkeys.
# Blood samples were taken at various times after administration and submitted to analysis for the parent drug (Example 4 and Example 71) and pro-drug (Examples 72 and 73) using an LC-MS-MS assay. […] Pharmacokinetic parameters derived from the plasma analytical data were determined using Watson LIMS 7.2.003 (Thermo Fisher Scientific, Waltham, Mass.). The results are given in FIG. 2 and Tables 13, 14, and 15.
# [4] = plasma, po, 2 mg/kg, Example 71 in dog plasma after oral Example 71 (2 mg/kg active), Dog 1
# [5] = plasma, po, 2 mg/kg, Example 71 in dog plasma after oral Example 71 (2 mg/kg active), Dog 2
# [6] = plasma, po, 2 mg/kg, Example 71 in dog plasma after oral Example 71 (2 mg/kg active), Mean
# [7] = Cynomolgus, plasma, po, 3 mg/kg, Example 71 in monkey plasma after oral Example 71 (3 mg/kg active), Mean
# [8] = Cynomolgus, plasma, po, 3 mg/kg, Example 71 in monkey plasma after oral Example 71 (3 mg/kg active), Monkey 1
# [9] = Cynomolgus, plasma, po, 3 mg/kg, Example 71 in monkey plasma after oral Example 71 (3 mg/kg active), Monkey 2
# [10] = Example 71 in monkey plasma after oral Example 71 (3 mg/kg active), Mean
# [11] = Example 71 in monkey plasma after oral Example 71 (3 mg/kg active), Monkey 1
# [12] = Example 71 in monkey plasma after oral Example 71 (3 mg/kg active), Monkey 2
# [13] = plasma, po, 1 mg/kg, Example 72 in dog plasma after oral Example 72 (1 mg/kg active), Dog 1
# [14] = plasma, po, 1 mg/kg, Example 72 in dog plasma after oral Example 72 (1 mg/kg active), Dog 2
# [15] = plasma, po, 1 mg/kg, Example 72 in dog plasma after oral Example 72 (1 mg/kg active), Mean
# Chain of human KAT II (hKAT II) enzyme (Q8N5Z0 30-425): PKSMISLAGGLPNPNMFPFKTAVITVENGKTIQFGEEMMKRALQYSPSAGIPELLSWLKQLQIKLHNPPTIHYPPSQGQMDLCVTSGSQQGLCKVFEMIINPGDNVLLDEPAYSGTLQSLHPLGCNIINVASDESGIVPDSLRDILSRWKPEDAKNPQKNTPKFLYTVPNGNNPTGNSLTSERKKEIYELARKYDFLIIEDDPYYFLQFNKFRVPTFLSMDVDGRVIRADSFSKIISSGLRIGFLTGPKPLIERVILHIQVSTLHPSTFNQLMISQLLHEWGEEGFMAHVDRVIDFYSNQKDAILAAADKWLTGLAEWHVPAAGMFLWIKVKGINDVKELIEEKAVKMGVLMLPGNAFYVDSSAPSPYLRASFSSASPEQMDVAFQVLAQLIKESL
structure (smiles),measurement,setting,value
"Cl.N[C@H]1Cc2cc(Oc3ccccc3)ccc2N(O)C1=O [Example 71, (3S)-3-amino-1-hydroxy-6-phenoxy-3,4-dihydroquinolin-2(1H)-one, hydrochloride salt]",IC50,[1],22.7 nM
same,AUC,"[2]; in vivo, exposure of Example 71 in dogs following intravenous administration of Example 71 at 0.5 mg/kg, read-out: AUC",247 ng·h/mL
same,Cmax,[2]; [4],25.4 ng/mL
same,Tmax,[2]; [4],15 min
same,half-life,[2]; [4],26.3 min
same,AUC,"[2]; plasma, po, 2 mg/kg, Example 71 in dog plasma after oral Example 71 (2 mg/kg active), Dog 1, read-out: AUC",10.3 ng·h/mL
same,AUC,"[2]; plasma, po, 2 mg/kg, Example 71 in dog plasma after oral Example 71 (2 mg/kg active), Dog 1, read-out: AUC Extrap",10.7 ng·h/mL
same,Cmax,[2]; [5],15.4 ng/mL
same,Tmax,[2]; [5],15 min
same,half-life,[2]; [5],17.9 min
same,AUC,"[2]; plasma, po, 2 mg/kg, Example 71 in dog plasma after oral Example 71 (2 mg/kg active), Dog 2, read-out: AUC",12.2 ng·h/mL
same,AUC,"[2]; plasma, po, 2 mg/kg, Example 71 in dog plasma after oral Example 71 (2 mg/kg active), Dog 2, read-out: AUC Extrap",12.5 ng·h/mL
same,Cmax,[2]; [6],20.4 ng/mL
same,Tmax,[2]; [6],15 min
same,half-life,[2]; [6],22.1 min
same,AUC,"[2]; plasma, po, 2 mg/kg, Example 71 in dog plasma after oral Example 71 (2 mg/kg active), Mean, read-out: AUC",11.3 ng·h/mL
same,AUC,"[2]; plasma, po, 2 mg/kg, Example 71 in dog plasma after oral Example 71 (2 mg/kg active), Mean, read-out: AUC Extrap",11.6 ng·h/mL
same,% AUC Extrap,"[2]; Example 71 in dog plasma after oral Example 71 (2 mg/kg active), Dog 1",3.44%
same,% AUC Extrap,"[2]; Example 71 in dog plasma after oral Example 71 (2 mg/kg active), Dog 2",2.35%
same,% AUC Extrap,"[2]; Example 71 in dog plasma after oral Example 71 (2 mg/kg active), Mean",2.9%
same,F,"[2]; Example 71 in dog plasma after oral Example 71 (2 mg/kg active), calculated using IV AUC of 247 ng · h/mL, Dog 1",1.0%
same,F,"[2]; Example 71 in dog plasma after oral Example 71 (2 mg/kg active), calculated using IV AUC of 247 ng · h/mL, Dog 2",1.3%
same,F,"[2]; Example 71 in dog plasma after oral Example 71 (2 mg/kg active), calculated using IV AUC of 247 ng · h/mL, Mean",1.2%
same,AUC,"[3]; Cynomolgus, in vivo, plasma exposure of Example 71 in monkeys following intravenous administration of Example 71 at 0.5 mg/kg, read-out: AUC",476 ng·h/mL
same,Cmax,[3]; [7],53.4 ng/mL
same,Tmax,[3]; [7],22.8 min
same,half-life,[3]; [7],52.9 min
same,Cmax,[3]; [8],44 ng/mL
same,Tmax,[3]; [8],15 min
same,half-life,[3]; [8],62.4 min
same,Cmax,[3]; [9],62.8 ng/mL
same,Tmax,[3]; [9],30 min
same,half-life,[3]; [9],43.4 min
same,% AUC Extrap,[3]; [10],1.28%
same,% AUC Extrap,[3]; [11],2.19%
same,% AUC Extrap,[3]; [12],0.366%
same,F,[3]; [10],3.2%
same,F,[3]; [11],2.2%
same,F,[3]; [12],4.2%
same,AUC,"[3]; plasma, po, 3 mg/kg, Example 71 in monkey plasma after oral Example 71 (3 mg/kg active), Mean, read-out: AUC",94.8 ng·h/mL
same,AUC,"[3]; plasma, po, 3 mg/kg, Example 71 in monkey plasma after oral Example 71 (3 mg/kg active), Mean, read-out: AUC Extrap",95.4 ng·h/mL
same,AUC,"[3]; plasma, po, 3 mg/kg, Example 71 in monkey plasma after oral Example 71 (3 mg/kg active), Monkey 1, read-out: AUC",55.5 ng·h/mL
same,AUC,"[3]; plasma, po, 3 mg/kg, Example 71 in monkey plasma after oral Example 71 (3 mg/kg active), Monkey 1, read-out: AUC Extrap",56.7 ng·h/mL
same,AUC,"[3]; plasma, po, 3 mg/kg, Example 71 in monkey plasma after oral Example 71 (3 mg/kg active), Monkey 2, read-out: AUC",134 ng·h/mL
same,AUC,"[3]; plasma, po, 3 mg/kg, Example 71 in monkey plasma after oral Example 71 (3 mg/kg active), Monkey 2, read-out: AUC Extrap",134 ng·h/mL
"CN(C)C(=O)ON1C(=O)[C@@H](N)Cc2cc(Oc3ccccc3)ccc21 [Example 72, (3S)-3-amino-1-[(dimethylcarbamoyl)oxy]-6-phenoxy-3,4-dihydroquinolin-2(1H)-one]",AUC,"[2]; plasma, iv, 0.47 mg/kg, exposure of Example 72 in dogs following intravenous administration of Example 72 at 0.47 mg/kg, read-out: AUC",497 ng·h/mL
same,Cmax,[2]; [13],142 ng/mL
same,Tmax,[2]; [13],30 min
same,half-life,[2]; [13],139 min
same,AUC,"[2]; plasma, po, 1 mg/kg, Example 72 in dog plasma after oral Example 72 (1 mg/kg active), Dog 1, read-out: AUC",402 ng·h/mL
same,AUC,"[2]; plasma, po, 1 mg/kg, Example 72 in dog plasma after oral Example 72 (1 mg/kg active), Dog 1, read-out: AUC Extrap",455 ng·h/mL
same,Cmax,[2]; [14],248 ng/mL
same,Tmax,[2]; [14],60 min
same,half-life,[2]; [14],116 min
same,AUC,"[2]; plasma, po, 1 mg/kg, Example 72 in dog plasma after oral Example 72 (1 mg/kg active), Dog 2, read-out: AUC",721 ng·h/mL
same,AUC,"[2]; plasma, po, 1 mg/kg, Example 72 in dog plasma after oral Example 72 (1 mg/kg active), Dog 2, read-out: AUC Extrap",790 ng·h/mL
same,Cmax,[2]; [15],195 ng/mL
same,Tmax,[2]; [15],45 min
same,half-life,[2]; [15],128 min
same,AUC,"[2]; plasma, po, 1 mg/kg, Example 72 in dog plasma after oral Example 72 (1 mg/kg active), Mean, read-out: AUC",562 ng·h/mL
same,AUC,"[2]; plasma, po, 1 mg/kg, Example 72 in dog plasma after oral Example 72 (1 mg/kg active), Mean, read-out: AUC Extrap",623 ng·h/mL
same,% AUC Extrap,"[2]; Example 72 in dog plasma after oral Example 72 (1 mg/kg active), Dog 1",11.7%
same,% AUC Extrap,"[2]; Example 72 in dog plasma after oral Example 72 (1 mg/kg active), Dog 2",8.77%
same,% AUC Extrap,"[2]; Example 72 in dog plasma after oral Example 72 (1 mg/kg active), Mean",10.2%
same,F,"[2]; Example 72 in dog plasma after oral Example 72 (1 mg/kg active), calculated using IV AUC of 497 ng · h/mL, Dog 1",38%
same,F,"[2]; Example 72 in dog plasma after oral Example 72 (1 mg/kg active), calculated using IV AUC of 497 ng · h/mL, Dog 2",54%
same,F,"[2]; Example 72 in dog plasma after oral Example 72 (1 mg/kg active), calculated using IV AUC of 497 ng · h/mL, Mean",46%
same,Plasma levels of Example 72,"[3]; monkeys, oral gavage of Example 72, all time points",below the limit of quantitation

# From patent US8183238B2, “Bicyclic and tricyclic compounds as KAT II inhibitors” (priority 2009, dated 2012)
